# Assay results: US20030004172A1, “Fused pyrimidinone matrix metalloproteinase inhibitors” (priority 2001, published 2003)
# Molecular target: MMP-13CD (catalytic domain of collagenase-3) (Homo sapiens, UniProt P45452)
# Assay: Thiopeptolide substrate hydrolysis inhibition assay, MMP-13CD
# Format: biochemical
# Conditions: Table I; thiopeptolide substrate, HEPES pH 7.0, 22° C.; read-out: MMP-13CD IC50
# Text: Thiopeptolide substrates show virtually no decomposition or hydrolysis at or below neutral pH in the absence of a matrix metalloproteinase enzyme.
row,SMILES,IC50 [nM]
1,"COc1ccc(COC(=O)c2cc3c(=O)n(Cc4ccccc4)c(=O)[nH]c3s2)cc1 [Example 50, 3-Benzyl-2,4-dioxo-1,2,3,4-tetrahydro-thieno[2,3-d]pyrimidine-6-carboxylic acid 4-methoxy-benzyl ester]",87.5
2,COc1ccc(CNC(=O)c2cc3c(=O)n(CCOc4ccc(Br)cc4)c(=O)n(C)c3s2)cc1 [Example 273],59
3,"C=CCCOC(=O)c1cc2c(=O)n(Cc3ccccc3)c(=O)n(C)c2s1 [Example 208, 3-Benzyl-1-methyl-2,4-dioxo-1,2,3,4-tetrahydro-thieno[2,3-d]pyrimidine-6-carboxylic acid but-3-enyl ester]",100
4,"COc1cccc(CNC(=O)c2cc3c(=O)n(CC4CCCCC4)c(=O)n(C)c3s2)c1 [Example 69, 3-Cylcohexylmethyl-1-methyl-2,4-dioxo-1,2,3,4-tetrahydro-thieno[2,3-d]pyrimidine-6-carboxylic acid-3methoxy-benzylamide]",57
5,"Cn1c(=O)n(Cc2ccccc2)c(=O)c2cc(C(=O)OCc3c(F)c(F)c(F)c(F)c3F)sc21 [Example 72, 3-Benzyl-1-methyl-2,4-dioxo-1,2,3,4-tetrahydro-thieno[2,3-d]pyrimidine-6-carboxylic acid pentafluorophenylmethyl ester]",> 100000
6,"Cn1c(=O)n(Cc2ccc(C#N)cc2)c(=O)c2cc(C(=O)OCc3ccccc3)sc21 [Example 313, 3-(4-Cyano-benzyl)-1-methyl-2,4-dioxo-1,2,3,4-tetrahydro-thieno[2,3-d]pyrimidine-6-carboxylic acid benzyl ester]",6.45
7,"CCn1c(=O)c2cc(C(=O)OCc3ccccc3)sc2n(C)c1=O [Example 142, 3-Ethyl-1-methyl-2,4-dioxo-1,2,3,4-tetrahydro-thieno[2,3-d]pyrimidine-6-carboxylic acid benzyl ester]",390
8,"COc1ccc(CNC(=O)c2cc3c(=O)n(CCC(=O)c4ccccc4)c(=O)n(C)c3s2)cc1 [Example 242, 1-Methyl-2,4-dioxo-3-(3-oxo-3-phenyl-propyl)-1,2,3,4-tetrahydro-thieno[2,3-d]pyrimidine-6-carboxylic acid 4-methoxy-benzylamide]",3000
9,COc1ccc(CNC(=O)c2cc3c(=O)n(CCc4cccc5ccccc45)c(=O)n(C)c3s2)cc1 [Example 259],30000
10,"COc1cccc(CNC(=O)c2cc3c(=O)n(CCS(=O)(=O)c4cccc(C(F)(F)F)c4)c(=O)n(C)c3s2)c1 [Example 244, 1-Methyl-2,4-dioxo-3-[2-(3-trifluoromethyl-benzenesulfonyl)-ethyl]-1,2,3,4-tetrahydro-thieno[2,3-d]pyrimidine-6-carboxylic acid 3-methoxy-benzylamide]",1250
11,COc1ccc(CNC(=O)c2cc3c(=O)n(CCCCCC#N)c(=O)n(C)c3s2)cc1 [Example 257],1500
12,C/C=C/Cn1c(=O)c2cc(C(=O)NCc3ccc(OC)cc3)sc2n(C)c1=O [Example 258],270
13,COc1cccc(CNC(=O)c2cc3c(=O)[nH]c(=O)n(C)c3s2)c1 [Example 218],18000
14,"Cn1c(=O)n(Cc2ccccc2)c(=O)c2cc(C(=O)OCCc3ccccc3)sc21 [Example 172, 3-Benzyl-1-methyl-2,4-dioxo-1,2,3,4-tetrahydro-thieno[2,3-d]pyrimidine-6-carboxylic acid phenethyl ester]",32000
15,"Cn1c(=O)n(Cc2ccc(C(=O)O)cc2)c(=O)c2cc(C(=O)NCc3ccncc3)sc21 [Example 51, 4-{1-Methyl-2,4-dioxo-6-[(pyridin-4-ylmethyl)-carbamoyl]-1,4-dihydro-2H-thieno[2,3-d]pyrimidin-3-ylmethyl}-benzoic acid; compound with trifluoro-acetic acid]",20.5
16,"COc1cccc(COC(=O)c2cc3c(=O)n(Cc4ccc(-c5nn[nH]n5)cc4)c(=O)[nH]c3s2)c1 [Example 67, 2,4-Dioxo-3-[4-(2H-tetrazol-4-yl)-benzyl]-1,2,3,4-tetrahydro-thieno[2,3-d]pyrimidine-6-carboxylic acid 3-methoxy-benzyl ester]",1.68
17,COc1cccc(CNC(=O)c2cc3c(=O)n(CC(=O)C(CC(=O)OC(C)(C)C)NC(=O)OCc4ccccc4)c(=O)n(C)c3s2)c1 (stereo not shown) [Example 299],30000
18,"Cn1c(=O)n(Cc2ccccc2)c(=O)c2cc(C(=O)NCc3ccco3)sc21 [Example 354, 3-Benzyl-1-methyl-2,4-dioxo-1,2,3,4-tetrahydro-thieno[2,3-d]pyrimidine-6-carboxylic acid (furan-2-ylmethyl)-amide]",30000
19,"Cn1c(=O)n(Cc2ccccc2)c(=O)c2cc(C(=O)OCc3cc4ccccc4o3)sc21 [Example 48, 3-Benzyl-1-methyl-2,4-dioxo-1,2,3,4-tetrahydro-thieno[2,3-d]pyrimidine-6-carboxylic acid benzofuran-2-ylmethyl ester]",1450

row,SMILES,IC50 [nM]
1,"COc1cccc(COC(=O)c2cc3c(=O)n(Cc4ccccc4)c(=O)n(C)c3s2)c1 [Example 192, 3-Benzyl-1-methyl-2,4-dioxo-1,2,3,4-tetrahydro-thieno[2,3-d]pyrimidine-6-carboxylic acid 3-methoxy-benzyl ester]",3.4
2,"Cn1c(=O)n(Cc2ccccc2)c(=O)c2cc(C(=O)OCCc3ccccn3)sc21 [Example 206, 3-Benzyl-1-methyl-2,4-dioxo-1,2,3,4-tetrahydro-thieno[2,3-d]pyrimidine-6-carboxylic acid 2-pyridin-2-yl-ethyl ester]",15000
3,"Cn1c(=O)n(Cc2ccccc2)c(=O)c2cc(C(=O)NCCc3ccc(Cl)cc3)sc21 [Example 322, 3-Benzyl-1-methyl-2,4-dioxo-1,2,3,4-tetrahydro-thieno[2,3-d]pyrimidine-6-carboxylic acid[2-(4-chloro-phenyl)-ethyl]-amide]",> 100000
4,"Cn1c(=O)n(CCCc2ccccc2)c(=O)c2cc(C(=O)OCc3ccccc3)sc21 [Example 143, 1-Methyl-2,4-dioxo-3-(3-phenyl-propyl)-1,2,3,4-tetrahydro-thieno[2,3-d]pyrimidine-6-carboxylic acid benzyl ester]",280
5,"Cn1c(=O)n(CCOc2ccccc2)c(=O)c2cc(C(=O)OCc3ccccc3)sc21 [Example 133, 1-Methyl-2,4-dioxo-3-(2-phenoxy-ethyl)-1,2,3,4-tetrahydro-thieno[2,3-d]pyrimidine-6-carboxylic acid benzyl ester]",74
6,"Cc1c(C(=O)OCc2ccccc2)sc2[nH]c(=O)n(Cc3ccc(Cl)c(Cl)c3)c(=O)c12 [Example 310, 3-(3,4-Dichloro-benzyl)-5-methyl-2,4-dioxo-1,2,3,4-tetrahydro-thieno[2,3-d]pyrimidine-6-carboxylic acid benzyl ester]",30000
7,"Cn1c(=O)n(Cc2ccccc2)c(=O)c2cc(C(=O)OCC3CCCCCC3)sc21 [Example 197, 3-Benzyl-1-methyl-2,4-dioxo-1,2,3,4-tetrahydro-thieno[2,3-d]pyrimidine-6-carboxylic acid cycloheptylmethyl ester]",> 100000
8,"Cn1c(=O)n(Cc2ccc(C(=O)OC(C)(C)C)cc2)c(=O)c2cc(C(=O)NCc3ccc(Br)cc3)sc21 [Example 56, 4-[6-(4-Bromo-benzylcarbamoyl)-1-methyl-2,4-dioxo-1,4-dihydro-2H-thieno[2,3-d]pyrimidin-3-ylmethyl]-benzoic acid tert-butyl ester]",30000
9,"COc1ccc(CNC(=O)c2cc3c(=O)n(Cc4ccc(S(=O)(=O)N(C)C)cc4)c(=O)n(C)c3s2)cc1 [Example 62, 3-(4-Dimethylsulfamoyl-benzyl)-1-methyl-2,4-dioxo-1,2,3,4-tetrahydro-thieno[2,3-d]pyrimidine-6-carboxylic acid 4-methoxy-benzylamide]",53.5
10,COc1cccc(CNC(=O)c2cc3c(=O)n(CCNC(=O)c4ccccc4)c(=O)n(C)c3s2)c1 [Example 294],> 100000
11,"Cn1c(=O)n(CCN2C(=O)c3ccccc3C2=O)c(=O)c2cc(C(=O)OCc3ccccc3)sc21 [Example 113, 3-[2-(1,3-Dioxo-1,3-dihydro-isoindol-2-yl)-ethyl]-1-methyl-2,4-dioxo-1,2,3,4-tetrahydro-thieno[2,3-d]pyrimidine-6-carboxylic acid benzyl ester]",2900
12,"COc1cccc(CNC(=O)c2cc3c(=O)n(Cc4ccc(C(=O)OCOC(=O)C(C)(C)C)cc4)c(=O)n(C)c3s2)c1 [Example 89, 4-[6-(3-Methoxy-benzylcarbamoyl)-1-methyl-2,4-dioxo-1,4-dihydro-2H-thieno[2,3-d]pyrimidin-3-ylmethyl]-benzoic acid 2,2-dimethyl-propionyloxymethyl ester]",113
13,"COc1cc(Cn2c(=O)c3cc(C(=O)OCc4ccccc4)sc3n(C)c2=O)cc(OC)c1 [Example 315, 3-(3,5-Dimethoxy-benzyl)-1-methyl-2,4-dioxo-1,2,3,4-tetrahydro-thieno[2,3-d]pyrimidine-6-carboxylic acid benzyl ester]",20.5
14,CCC(CC)n1c(=O)c2cc(C(=O)NCc3cccc(OC)c3)sc2n(C)c1=O [Example 290],15000
15,"Cc1ccc(CCNC(=O)c2cc3c(=O)n(Cc4ccccc4)c(=O)n(C)c3s2)c(C)c1 [Example 362, 3-Benzyl-1-methyl-2,4-dioxo-1,2,3,4-tetrahydro-thieno[2,3-d]pyrimidine-6-carboxylic acid[2-(2,4-dimethyl-phenyl)-ethyl]-amide]",> 100000
16,"CC(CN(C)C)OC(=O)c1cc2c(=O)n(Cc3ccccc3)c(=O)n(C)c2s1 (stereo not shown) [Example 165, 3-Benzyl-1-methyl-2,4-dioxo-1,2,3,4-tetrahydro-thieno[2,3-d]pyrimidine-6-carboxylic acid 2-dimethylamino-1-methyl-ethyl ester]",20000
17,COc1cccc(CNC(=O)c2cc3c(=O)n(CCSc4ccc(Cl)cc4)c(=O)n(C)c3s2)c1 [Example 278],7600
18,"Cn1c(=O)n(Cc2ccccc2)c(=O)c2cc(C(=O)NCC(c3ccccc3)c3ccccc3)sc21 [Example 347, 3-Benzyl-1-methyl-2,4-dioxo-1,2,3,4-tetrahydro-thieno[2,3-d]pyrimidine-6-carboxylic acid (2,2-diphenyl-ethyl)-amide]",16000
